Experimental data as given in patent US20060216330A1, “Peptides having an ace inhibiting effect” (priority 2003, published 2006).
Read-outs that look alike come from different tables or passages of the source. Ends that are not written are not given here. Peptide text beside a SMILES is read from it.

What was measured:
[1] = target: ACE (Homo sapiens, UniProt P12821); experiment: ACE activity measurement with fluorogenic substrate Abz-FRK(Dnp)P-OH
Procedure: ACE activity with the fluorogenic substrate Abz-FRK(Dnp)P—OH was monitored in 0.1 M Tris buffer pH 7.0, containing 100 mM NaCl. […] The ACE activity was continuously followed in a Fluostar (BMG) fluorometer with 2 dispensers by measuring the fluorescence at λex: 320 nm and λem: 420 nm.

[2] = In vitro gastro-intestinal digestion of Biozate (artificial human gastro intestinal tract)
Procedure: The stability of peptides in the human gastro-intestinal tract was studied by subjecting Biozate™ to typical conditions in the stomach and small intestine. Gastric conditions were mimicked by dissolving 5.0 g Biozate™, 2.1 g NaCl, 0.1 g NaH2PO4, 0.45 g lipase and 2.9 g pepsin in 900 mL of Millipore Q water. The fluid was adjusted to pH 3.5 with HCl, stirred with a peddle (50 rpm) and kept at 37° C. for 60 min. Subsequently, intestinal conditions were mimicked by adding 9.0 g pancreatin to the simulated gastric fluid and adjusting the pH to 6.8 with NaHCO3. The simulated intestinal fluid was incubated at 37° C. and continuous stirring (50 rpm) for 120 min. Samples were collected at different time points during the in vitro gastro-intestinal digestion. After collection, samples were directly heated at 95° C. for 30 min and subsequently stored at −20° C.
At certain times samples were taken from the GIT model system.

[3] = system: spontaneously hypertensive rats; conditions: Abubakar et al., 1998; cited from earlier work

ACE, sequence (P12821 30-1306, species assumed): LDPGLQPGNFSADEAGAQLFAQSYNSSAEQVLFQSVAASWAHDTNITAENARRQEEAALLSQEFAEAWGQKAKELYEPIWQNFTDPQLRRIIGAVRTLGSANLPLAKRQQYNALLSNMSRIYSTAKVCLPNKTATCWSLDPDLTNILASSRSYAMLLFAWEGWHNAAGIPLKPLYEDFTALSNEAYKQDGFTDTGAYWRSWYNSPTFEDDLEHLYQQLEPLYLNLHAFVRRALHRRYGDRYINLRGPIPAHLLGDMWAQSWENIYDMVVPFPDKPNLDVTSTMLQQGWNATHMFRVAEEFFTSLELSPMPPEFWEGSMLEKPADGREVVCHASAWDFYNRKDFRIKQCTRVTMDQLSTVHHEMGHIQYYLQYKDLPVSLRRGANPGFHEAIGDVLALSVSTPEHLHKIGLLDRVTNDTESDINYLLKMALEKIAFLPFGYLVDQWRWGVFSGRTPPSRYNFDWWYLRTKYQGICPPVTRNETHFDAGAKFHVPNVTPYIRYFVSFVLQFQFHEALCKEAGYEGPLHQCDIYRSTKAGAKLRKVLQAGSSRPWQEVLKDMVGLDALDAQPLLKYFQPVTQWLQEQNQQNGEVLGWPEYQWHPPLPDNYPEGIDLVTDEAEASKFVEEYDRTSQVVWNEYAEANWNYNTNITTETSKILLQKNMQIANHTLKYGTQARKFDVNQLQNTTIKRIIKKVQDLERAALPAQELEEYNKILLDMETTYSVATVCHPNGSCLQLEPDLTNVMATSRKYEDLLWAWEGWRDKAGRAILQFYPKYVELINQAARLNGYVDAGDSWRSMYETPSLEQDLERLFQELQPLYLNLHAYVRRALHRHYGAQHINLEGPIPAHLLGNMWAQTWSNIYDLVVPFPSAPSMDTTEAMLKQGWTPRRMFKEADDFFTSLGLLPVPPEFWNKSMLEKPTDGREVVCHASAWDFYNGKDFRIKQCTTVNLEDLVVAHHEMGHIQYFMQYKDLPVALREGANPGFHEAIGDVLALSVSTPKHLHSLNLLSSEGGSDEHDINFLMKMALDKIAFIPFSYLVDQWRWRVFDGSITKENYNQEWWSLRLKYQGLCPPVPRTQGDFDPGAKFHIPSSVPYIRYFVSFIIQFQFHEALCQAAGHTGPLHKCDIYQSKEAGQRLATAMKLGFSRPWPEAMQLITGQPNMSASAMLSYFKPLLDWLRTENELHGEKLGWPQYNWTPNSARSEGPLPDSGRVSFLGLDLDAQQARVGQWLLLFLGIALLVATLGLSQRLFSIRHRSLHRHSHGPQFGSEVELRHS

Row | Compound | IC50 [1] [µM] | Concentration, t = 0 min (pH 3.5) [ng/mL] | Concentration, t = 65 min (pH 6.8) [ng/mL] | Concentration, Original solution ([2]; Biozate original solution before digestion) [ng/mL] | Concentration, t = 0 min ([2]; t = 0 min, simulated gastric fluid pH 3.5, 37° C.) [ng/mL] | Concentration, t = 60 min ([2]; t = 60 min, end of gastric phase) [ng/mL] | Concentration, t = 65 min ([2]; t = 65 min, simulated intestinal fluid (pancreatin, pH 6.8)) [ng/mL] | Concentration, t = 75 min ([2]; t = 75 min, simulated intestinal fluid) [ng/mL] | Concentration, t = 90 min ([2]; t = 90 min, simulated intestinal fluid) [ng/mL] | Concentration, t = 120 min ([2]; t = 120 min, simulated intestinal fluid) [ng/mL] | Concentration, t = 150 min ([2]; t = 150 min, simulated intestinal fluid) [ng/mL] | Concentration, t = 180 min ([2]; t = 180 min, simulated intestinal fluid) [ng/mL] | antihypertensive activity [3]
1 | IPAVFK [IPAVFK] | 120 | 26000 | 3000 | – | – | – | – | – | – | – | – | – | –
2 | CC[C@H](C)[C@H](N)C(=O)N1CCC[C@H]1C(=O)N[C@@H](C)C(=O)O [IPA] (H-Ile-Pro-Ala-OH; N-terminus and C-terminus assumed) | 50 | – | – | 0 | 0 | 0 | 9000 | 9000 | 9000 | 9000 | 14000 | 17000 | has antihypertensive activity
